Experimental data published in patent US12023319B2, “Carboxylic acid aromatic amides” (priority 2016, dated 2024).

How the values were obtained:
[1] = molecular target: T1, human Bradykinin B1 receptor (Homo sapiens, UniProt P46663); assay: Calcium flux assay (FLIPR), CHO-K1 cells expressing human Bradykinin B1 receptor, absence of 0.1% BSA (hB1 free IC50); type: cell-based; conditions: absence of 0.1% BSA in assay buffer
T1 construct: host or cells: CHO-K1
T1 sequence (P46663 1-353): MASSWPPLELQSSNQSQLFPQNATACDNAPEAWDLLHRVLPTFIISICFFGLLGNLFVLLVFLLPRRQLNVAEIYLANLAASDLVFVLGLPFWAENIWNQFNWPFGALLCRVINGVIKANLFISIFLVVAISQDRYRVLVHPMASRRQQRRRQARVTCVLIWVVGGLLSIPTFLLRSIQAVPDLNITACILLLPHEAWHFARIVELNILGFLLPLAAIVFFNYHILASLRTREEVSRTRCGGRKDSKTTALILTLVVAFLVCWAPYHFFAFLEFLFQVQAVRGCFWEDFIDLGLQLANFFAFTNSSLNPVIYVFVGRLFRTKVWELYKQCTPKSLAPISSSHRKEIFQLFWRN
Outline: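 Peak FLIPR fluorescence (538 nm) after B1 agonist peptide addition gave IC50s, scaled between DMSO and full block by 20 µM Lys-(Des-Arg-Leu)-Bradykinin. Compounds were preincubated 30 min at 28° C with calcium-dye-loaded CHO-K1 cells expressing human B1, at 8 concentrations in triplicate, 1% DMSO final.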

[2] = molecular target: T2, native human Bradykinin B1 receptor (Homo sapiens, UniProt P46663); assay: Calcium flux assay (FLIPR) with IMR-90 human fibroblasts expressing Bradykinin B1 receptor after IL-1beta induction (hB1 IMR-90); type: cell-based; conditions: IMR-90 human fibroblasts after IL-1beta induction, read-out: hB1 IMR90 IC50
T2 construct: which express native human Bradykinin B1 receptor after induction with human IL-1beta; Coriell Institute; host or cells: IMR-90 human foetal lung fibroblasts, induced with human IL-1beta
T2 sequence (P46663 1-353): T1 sequence (P46663 1-353)
Experimental: Calcium Flux Assay (FLIPR) with Human Fibroblasts Expressing Bradykinin B1 Receptor (hB1 IMR-90)
The Calcium flux Assay was carried out utilising IMR-90 human foetal lung fibroblasts (American Type Culture Collection, Rockville, MD; and Coriell Institute, Camden, New Jersey), which express native human Bradykinin B1 receptor after induction with human IL-1beta.
The fibroblasts were cultured in complete growth media comprised of Dulbecco's modified Eagle's medium (DMEM; Sigma) containing 10% foetal bovine serum, 4 mM L-glutamine, and 1% nonessential amino acids. The cells were maintained in a humidified atmosphere with 5% CO2 at 37° C. and were sub-cultured at a ratio of 1:3, every other day.
For the assay, IMR-90 fibroblasts were harvested using TrypLE Express (GIBCO/Invitrogen) and seeded into 384-well plates (Corning Cellbinding Surface, Cat. 3683) at a density of 15000 cells/well. The following day, cells were treated with 0.35 ng/mL human IL-1beta in 10% FBS/MEM for 3 h to up-regulate Bradykinin B1 receptor. Induced cells were loaded with fluorescent calcium indicator by incubation with 2.5 μM Fluo-4/AM (Invitrogen) at 37° C., 5% CO2 for 2 h in the presence of 2.5 mM probenecid in 1% FBS/MEM. […] Compound examples were assayed at 8 concentrations in triplicate. […] A peptide antagonist Lys-(Des-Arg-Leu)-Bradykinin (Bachem, Brackley) at 20 µM was used to determine the full inhibition as control. IC50 values were determined by the same way described for the FLI PR assay with recombinant cells.

Row | Compound | IC50 [1] [nM] | IC50 [2] [nM]
1 | Cc1ccc(-c2ccc(NC(=O)C3(c4ccc(C(F)(F)F)cc4F)CC3)cc2C(=O)O)cn1 [Example 19, 5-[({1-[2-Fluoro-4-(trifluoromethyl)phenyl]cyclopropyl}carbonyl)amino]-2-(6-methylpyridin-3-yl)benzoic acid] | 67 | 130
2 | CCC(F)(F)c1ccc(-c2ccc(NC(=O)C3(c4ccc(F)c(F)c4)CC3)cc2C(=O)O)cn1 [Example 20, 5-({[1-(3,4-Difluorophenyl)cyclopropyl]carbonyl}amino)-2-[6-(1,1-difluoropropyl)pyridin-3-yl]benzoic acid] | 2500 | 1700
3 | Cc1ccc(C2(C(=O)Nc3cc(F)c(-c4cnn(C5CCC5)c4)c(C(=O)O)c3)CC2)c(F)c1 [Example 25, 2-(1-Cyclobutyl-1H-pyrazol-4-yl)-3-fluoro-5-({[1-(2-fluoro-4-methylphenyl)cyclopropyl]carbonyl}amino)benzoic acid] | 14 | 5.9
4 | CCC(F)(F)c1ccc(-c2ccc(NC(=O)C3(c4ccc(C)cc4F)CC3)cc2C(=O)O)cn1 [Example 26, 2-[6-(1,1-Difluoropropyl)pyridin-3-yl]-5-({[1-(2-fluoro-4-methylphenyl)cyclopropyl]carbonyl}amino)benzoic acid] | 140 | 130
5 | CCC(F)(F)c1ccc(-c2ccc(NC(=O)C3(c4ccc(OC(F)(F)F)cc4F)CC3)cc2C(=O)O)cn1 [Example 27, 2-[6-(1,1-Difluoropropyl)pyridin-3-yl]-5-[({1-[2-fluoro-4-(trifluoromethoxy)phenyl]cyclopropyl}carbonyl)amino]benzoic acid] | 33 | 73
6 | O=C(O)c1cc(NC(=O)C2(c3cccc(Cl)c3)CC2)ccc1-c1cnn(C2CCC2)c1 [Example 28, 5-({[1-(3-Chlorophenyl)cyclopropyl]carbonyl}amino)-2-(1-cyclobutyl-1H-pyrazol-4-yl)benzoic acid] | 300 | 460
7 | O=C(O)c1cc(NC(=O)C2(c3ccc(C(F)(F)F)cc3)CC2)cc(F)c1-c1cnn(C2CCC2)c1 [Example 36, 2-(1-Cyclobutyl-1H-pyrazol-4-yl)-3-fluoro-5-[({1-[4-(trifluoromethyl)phenyl]cyclopropyl}carbonyl)amino]benzoic acid] | 6 | 14
8 | O=C(O)c1cc(NC(=O)C2(c3ccc(OC(F)(F)F)cc3)CC2)cc(F)c1-c1cnn(C2CCC2)c1 [Example 37, 2-(1-Cyclobutyl-1H-pyrazol-4-yl)-3-fluoro-5-[({1-[4-(trifluoromethoxy)phenyl]cyclopropyl}carbonyl)amino]benzoic acid] | 20 | 5.6
9 | O=C(O)c1cc(NC(=O)C2(c3ccc(C(F)(F)F)c(F)c3)CC2)cc(F)c1-c1cnn(C2CCC2)c1 [Example 39, 2-(1-Cyclobutyl-1H-pyrazol-4-yl)-3-fluoro-5-[({1-[3-fluoro-4-(trifluoromethyl)phenyl]cyclopropyl}carbonyl)amino]benzoic acid] | 18 | 6.1
10 | O=C(O)c1cc(NC(=O)C2(c3ccc(F)cc3F)CC2)cc(F)c1-c1cnn(C2CCC2)c1 [Example 40, 2-(1-Cyclobutyl-1H-pyrazol-4-yl)-5-({[1-(2,4-difluorophenyl)cyclopropyl]carbonyl}amino)-3-fluorobenzoic acid] | 16 | 11
11 | O=C(O)c1cc(NC(=O)C2(c3ccc(Cl)cc3F)CC2)cc(F)c1-c1cnn(C2CCC2)c1 [Example 41, 5-({[1-(4-Chloro-2-fluorophenyl)cyclopropyl]carbonyl}amino)-2-(1-cyclobutyl-1H-pyrazol-4-yl)-3-fluorobenzoic acid] | 8.8 | 3.7
12 | O=C(O)c1cc(NC(=O)C2(c3ccc(F)cn3)CC2)cc(F)c1-c1cnn(C2CCC2)c1 [Example 44, 2-(1-Cyclobutyl-1H-pyrazol-4-yl)-3-fluoro-5-({[1-(5-fluoropyridin-2-yl)cyclopropyl]carbonyl}amino)benzoic acid] | 45 | 58
13 | O=C(O)c1cc(NC(=O)C2(c3ccc(OC(F)(F)F)cc3F)CC2)ccc1-c1cnn(C2CCC2)c1 [Example 51, 2-(1-Cyclobutyl-1H-pyrazol-4-yl)-5-[({1-[2-fluoro-4-(trifluoromethoxy)phenyl]cyclopropyl}carbonyl)amino]benzoic acid] | 17 | 19
14 | O=C(O)c1cc(NC(=O)C2(c3ccc(Cl)cc3F)CC2)ccc1-c1cnn(C2CCC2)c1 [Example 53, 5-({[1-(4-Chloro-2-fluorophenyl)cyclopropyl]carbonyl}amino)-2-(1-cyclobutyl-1H-pyrazol-4-yl)benzoic acid] | 32 | 15
15 | O=C(O)c1cc(NC(=O)C2(c3cc(Cl)ccc3F)CC2)ccc1-c1cnn(C2CCC2)c1 [Example 54, 5-({[1-(5-Chloro-2-fluorophenyl)cyclopropyl]carbonyl}amino)-2-(1-cyclobutyl-1H-pyrazol-4-yl)benzoic acid] | 26 | 22
16 | CC(C)(C)c1cn(-c2ccc(NC(=O)C3(c4ccc(C(F)(F)F)cc4F)CC3)cc2C(=O)O)cn1 [Example 67, 2-(4-tert-Butyl-1H-imidazol-1-yl)-5-[({1-[2-fluoro-4-(trifluoromethyl)phenyl]cyclopropyl}carbonyl)amino]benzoic acid] | 61 | 41
17 | CC(C)n1cc(-c2ccc(NC(=O)C3(c4ccc(C(F)(F)F)cc4F)CC3)cc2C(=O)O)cn1 [Example 70, 5-[({1-[2-Fluoro-4-(trifluoromethyl)phenyl]cyclopropyl}carbonyl)amino]-2-[1-(propan-2-yl)-1H-pyrazol-4-yl]benzoic acid] | 34 | 49
18 | CC(C)(C)n1cc(-c2ccc(NC(=O)C3(c4ccc(OC(F)(F)F)cc4F)CC3)cc2C(=O)O)cn1 [Example 73, 2-(1-tert-Butyl-1H-pyrazol-4-yl)-5-[({1-[2-fluoro-4-(trifluoromethoxy)phenyl]cyclopropyl}carbonyl)amino]benzoic acid] | 21 | 44
19 | CC(C)Cn1cc(-c2ccc(NC(=O)C3(c4ccc(C(F)(F)F)cc4F)CC3)cc2C(=O)O)cn1 [Example 74, 5-[({1-[2-Fluoro-4-(trifluoromethyl)phenyl]cyclopropyl}carbonyl)amino]-2-[1-(2-methylpropyl)-1H-pyrazol-4-yl]benzoic acid] | 17 | 15
20 | CC(C)Cn1cc(-c2ccc(NC(=O)C3(c4ccc(OC(F)(F)F)cc4F)CC3)cc2C(=O)O)cn1 [Example 75, 5-[({1-[2-Fluoro-4-(trifluoromethoxy)phenyl]cyclopropyl}carbonyl)amino]-2-[1-(2-methylpropyl)-1H-pyrazol-4-yl]benzoic acid] | 11 | 18
21 | CC(C)(C)Cn1cc(-c2ccc(NC(=O)C3(c4ccc(OC(F)(F)F)cc4F)CC3)cc2C(=O)O)cn1 [Example 77, 2-[1-(2,2-Dimethylpropyl)-1H-pyrazol-4-yl]-5-[({1-[2-fluoro-4-(trifluoromethoxy)phenyl]cyclopropyl}carbonyl)amino]benzoic acid] | 17 | 13
